For 18 molecules, EC80 results are on record in paper PMC9798004 (Frontiers in Psychiatry, 2022).

Test in all cases: PathHunter β-arrestin assay
Format in all cases: cell-based

One assay addresses T1, PTGIR (Homo sapiens, UniProt P43119).
T1 construct: purchased Eurofins DiscoverX (PathHunter gpcrMAX)
The following applies: screen, control agonist; CHO, 37C, 2HR.

The target of the next assay is T2, P2RY1 (Homo sapiens, UniProt P47900).
T2 construct: purchased Eurofins DiscoverX (PathHunter gpcrMAX)
T2 sequence (P47900 whole entry): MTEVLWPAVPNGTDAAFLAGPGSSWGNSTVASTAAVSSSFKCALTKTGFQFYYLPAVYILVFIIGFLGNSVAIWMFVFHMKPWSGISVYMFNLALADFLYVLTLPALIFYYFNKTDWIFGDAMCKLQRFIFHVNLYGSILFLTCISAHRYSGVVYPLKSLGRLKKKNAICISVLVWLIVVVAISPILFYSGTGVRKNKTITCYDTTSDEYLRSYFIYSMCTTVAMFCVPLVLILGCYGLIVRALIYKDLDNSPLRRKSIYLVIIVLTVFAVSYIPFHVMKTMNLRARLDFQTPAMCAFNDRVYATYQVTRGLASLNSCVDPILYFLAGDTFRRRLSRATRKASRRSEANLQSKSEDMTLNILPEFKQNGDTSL
The following applies: screen, control agonist; U2OS, RT, 2HR.

A further assay deals with T3, P2RY12 (Homo sapiens, UniProt Q9H244).
T3 construct: purchased Eurofins DiscoverX (PathHunter gpcrMAX)
T3 sequence (Q9H244 whole entry, one chain of several): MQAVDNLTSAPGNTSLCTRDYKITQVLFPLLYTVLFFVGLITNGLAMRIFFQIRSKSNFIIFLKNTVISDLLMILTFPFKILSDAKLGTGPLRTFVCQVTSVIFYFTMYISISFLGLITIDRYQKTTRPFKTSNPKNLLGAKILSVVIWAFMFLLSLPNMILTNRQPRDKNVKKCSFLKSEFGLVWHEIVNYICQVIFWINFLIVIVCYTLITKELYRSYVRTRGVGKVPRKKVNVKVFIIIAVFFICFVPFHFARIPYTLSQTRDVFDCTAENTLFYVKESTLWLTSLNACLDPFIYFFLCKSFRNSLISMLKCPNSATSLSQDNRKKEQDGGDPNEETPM
The following applies: screen, control agonist; CHO, RT, 2HR.

The next assay concerns the target T4, OXER1 (Homo sapiens, UniProt Q8TDS5).
T4 construct: purchased Eurofins DiscoverX (PathHunter gpcrMAX)
The following applies: screen, control agonist; CHO, RT, 2HR.

A further assay has as its target T5, P2RY11 (Homo sapiens, UniProt Q96G91).
T5 construct: purchased Eurofins DiscoverX (PathHunter gpcrMAX)
The following applies: screen, control agonist; CHO, 37C, 2HR.

The next assay concerns the target T6, TBXA2R (Homo sapiens, UniProt P21731).
T6 construct: purchased Eurofins DiscoverX (PathHunter gpcrMAX)
The following applies: screen, control agonist; U2OS, 37C, 2HR.

For another assay, the target named is T7, PTAFR (Homo sapiens, UniProt P25105).
T7 construct: purchased Eurofins DiscoverX (PathHunter gpcrMAX)
T7 sequence (P25105 whole entry): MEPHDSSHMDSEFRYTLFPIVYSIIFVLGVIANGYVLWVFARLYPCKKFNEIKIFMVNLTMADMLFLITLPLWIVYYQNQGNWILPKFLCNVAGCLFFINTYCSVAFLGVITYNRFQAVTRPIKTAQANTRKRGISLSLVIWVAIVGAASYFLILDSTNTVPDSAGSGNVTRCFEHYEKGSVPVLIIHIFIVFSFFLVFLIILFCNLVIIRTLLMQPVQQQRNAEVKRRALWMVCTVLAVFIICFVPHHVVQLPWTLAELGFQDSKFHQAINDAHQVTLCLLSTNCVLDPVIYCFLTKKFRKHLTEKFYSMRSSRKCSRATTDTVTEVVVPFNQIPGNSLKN
Particulars: screen, control agonist; CHO, 37C, 2HR.

The next assay deals with PTGER4 (Homo sapiens, UniProt P35408). The following applies: control agonist. Here is the method: (§1) Follow up experiments were prioritized based on the difference between S/N and CoV. Targets with a >5-fold difference between S/N and CoV were investigated for their potential contribution to the AMB-FUBINACA toxidrome with 10-point concentration-response curves generated in technical replicate (range 1.5–30 μM) using the EC80 of the relevant agonist, where applicable in antagonist mode. Simultaneous agonist and antagonist curves were run in parallel to ensure reliability of the assay (see Supplementary Table 2), with both RC50 and signal to background aligning with historical averages, and Z' >0.5. RC50 was estimated using a four-parameter fit (CBIS Data Analysis Suite, ChemInnovation, San Diego, CA) on normalized data.
Sequence of PTGER4 (P35408 whole entry): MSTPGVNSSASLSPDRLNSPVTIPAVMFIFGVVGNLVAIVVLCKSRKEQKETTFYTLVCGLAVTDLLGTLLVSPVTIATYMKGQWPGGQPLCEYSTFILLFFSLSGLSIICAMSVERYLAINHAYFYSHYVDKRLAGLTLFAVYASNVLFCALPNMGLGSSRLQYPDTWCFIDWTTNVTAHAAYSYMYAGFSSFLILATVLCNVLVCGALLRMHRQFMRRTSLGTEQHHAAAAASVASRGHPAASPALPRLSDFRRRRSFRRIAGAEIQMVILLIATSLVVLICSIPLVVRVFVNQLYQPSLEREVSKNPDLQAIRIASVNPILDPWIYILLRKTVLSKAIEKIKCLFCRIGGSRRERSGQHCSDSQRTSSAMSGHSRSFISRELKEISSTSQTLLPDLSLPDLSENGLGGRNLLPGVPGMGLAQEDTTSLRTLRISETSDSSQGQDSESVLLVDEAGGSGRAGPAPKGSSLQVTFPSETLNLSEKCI

Another assay has as its target T8, PTGER2 (Homo sapiens, UniProt P43116).
T8 construct: purchased Eurofins DiscoverX (PathHunter gpcrMAX)
Particulars: screen, control agonist; CHO, 37C, 2HR.

For a further assay, the target named is P2RY6 (Homo sapiens, UniProt Q15077). The following applies: screen, control agonist; CHO, 37C, 2HR. On the procedure:
as §1

The target of another assay is T9, P2RY2 (Homo sapiens, UniProt P41231).
T9 construct: purchased Eurofins DiscoverX (PathHunter gpcrMAX)
T9 sequence (P41231 whole entry): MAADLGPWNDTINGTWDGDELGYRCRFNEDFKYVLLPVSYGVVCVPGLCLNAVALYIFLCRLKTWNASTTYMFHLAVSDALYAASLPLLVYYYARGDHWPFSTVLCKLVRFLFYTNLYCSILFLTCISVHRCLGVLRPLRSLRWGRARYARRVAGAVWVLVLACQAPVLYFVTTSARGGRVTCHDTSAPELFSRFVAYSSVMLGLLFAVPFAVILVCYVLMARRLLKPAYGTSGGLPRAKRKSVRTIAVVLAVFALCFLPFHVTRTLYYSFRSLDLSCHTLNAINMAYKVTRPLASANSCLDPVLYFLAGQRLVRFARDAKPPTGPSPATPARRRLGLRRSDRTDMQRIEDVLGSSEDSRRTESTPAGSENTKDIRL
Particulars: screen, control agonist; U2OS, 37C, 2HR.

A further assay deals with T10, P2RY4 (Homo sapiens, UniProt P51582).
T10 construct: purchased Eurofins DiscoverX (PathHunter gpcrMAX)
The following applies: screen, control agonist; CHO, 37C, 2HR.

The target in another assay is T11, BDKRB1 (Homo sapiens, UniProt P46663).
T11 construct: purchased Eurofins DiscoverX (PathHunter gpcrMAX)
The following applies: screen, control agonist; CHO, 37C, 2HR.

Another assay concerns the target T12, NPSR1b (Homo sapiens, UniProt Q6W5P4).
T12 construct: purchased Eurofins DiscoverX (PathHunter gpcrMAX)
T12 sequence (Q6W5P4 1-377 isoform Q6W5P4-4): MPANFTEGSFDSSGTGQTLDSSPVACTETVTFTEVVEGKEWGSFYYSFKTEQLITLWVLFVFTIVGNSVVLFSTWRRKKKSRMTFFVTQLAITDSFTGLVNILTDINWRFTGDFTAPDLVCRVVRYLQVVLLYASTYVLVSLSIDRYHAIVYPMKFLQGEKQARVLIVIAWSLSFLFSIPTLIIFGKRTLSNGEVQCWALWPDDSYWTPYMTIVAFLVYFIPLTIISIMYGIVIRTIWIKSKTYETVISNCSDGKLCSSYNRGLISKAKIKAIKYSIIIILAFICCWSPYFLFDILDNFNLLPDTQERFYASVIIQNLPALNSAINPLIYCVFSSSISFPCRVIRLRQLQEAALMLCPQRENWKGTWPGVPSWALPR
Particulars: screen, control agonist; U2OS, 37C, 2HR.

The target in the next assay is T13, NPY1R (Homo sapiens, UniProt P25929).
T13 construct: purchased Eurofins DiscoverX (PathHunter gpcrMAX)
T13 sequence (P25929 1-384): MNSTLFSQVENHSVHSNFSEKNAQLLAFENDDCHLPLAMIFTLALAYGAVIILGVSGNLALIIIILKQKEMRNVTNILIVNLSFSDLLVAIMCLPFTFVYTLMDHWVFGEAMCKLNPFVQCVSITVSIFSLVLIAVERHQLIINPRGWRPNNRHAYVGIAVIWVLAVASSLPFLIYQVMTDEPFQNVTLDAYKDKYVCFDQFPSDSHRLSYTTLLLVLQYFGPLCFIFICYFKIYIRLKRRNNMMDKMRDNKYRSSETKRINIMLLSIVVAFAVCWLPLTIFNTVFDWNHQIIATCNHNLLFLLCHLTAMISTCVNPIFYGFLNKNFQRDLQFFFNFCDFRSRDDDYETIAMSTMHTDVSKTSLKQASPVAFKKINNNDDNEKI
Particulars: screen, control agonist; CHO, RT, 2HR.

The target in a further assay is T14, PRLHR (Homo sapiens, UniProt P49683).
T14 construct: purchased Eurofins DiscoverX (PathHunter gpcrMAX)
T14 sequence (P49683 1-370): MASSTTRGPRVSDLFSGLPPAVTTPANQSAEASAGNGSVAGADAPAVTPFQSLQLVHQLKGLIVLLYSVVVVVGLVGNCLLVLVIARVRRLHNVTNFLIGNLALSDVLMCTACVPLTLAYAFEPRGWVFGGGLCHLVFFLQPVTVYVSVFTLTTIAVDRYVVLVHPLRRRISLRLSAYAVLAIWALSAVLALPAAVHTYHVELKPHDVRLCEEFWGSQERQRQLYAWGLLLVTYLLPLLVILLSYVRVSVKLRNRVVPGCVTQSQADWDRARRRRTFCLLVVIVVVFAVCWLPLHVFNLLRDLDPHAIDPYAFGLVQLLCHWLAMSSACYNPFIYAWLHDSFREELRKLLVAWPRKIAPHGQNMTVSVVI
The following applies: screen, control agonist; CHO, 37C, 2HR.

Another assay addresses T15, RXFP3 (Homo sapiens, UniProt Q9NSD7).
T15 construct: purchased Eurofins DiscoverX (PathHunter gpcrMAX)
T15 sequence (Q9NSD7 1-469): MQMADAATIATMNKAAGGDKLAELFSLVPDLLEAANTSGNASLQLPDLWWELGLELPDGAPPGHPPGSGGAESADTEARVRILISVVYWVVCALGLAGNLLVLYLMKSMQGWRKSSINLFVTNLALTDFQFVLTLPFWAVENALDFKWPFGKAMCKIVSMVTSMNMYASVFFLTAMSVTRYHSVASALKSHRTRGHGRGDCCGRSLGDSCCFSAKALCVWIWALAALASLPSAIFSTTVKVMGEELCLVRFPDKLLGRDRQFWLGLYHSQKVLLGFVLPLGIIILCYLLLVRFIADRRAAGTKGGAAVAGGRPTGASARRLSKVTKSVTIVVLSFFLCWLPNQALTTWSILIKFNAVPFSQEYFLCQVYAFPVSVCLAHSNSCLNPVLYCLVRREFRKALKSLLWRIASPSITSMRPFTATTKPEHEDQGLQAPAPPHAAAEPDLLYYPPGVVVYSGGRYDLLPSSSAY
Particulars: screen, control agonist; CHO, 37C, 2HR.

The target of another assay is T16, TACR3 (Homo sapiens, UniProt P29371).
T16 construct: purchased Eurofins DiscoverX (PathHunter gpcrMAX)
T16 sequence (P29371 1-465): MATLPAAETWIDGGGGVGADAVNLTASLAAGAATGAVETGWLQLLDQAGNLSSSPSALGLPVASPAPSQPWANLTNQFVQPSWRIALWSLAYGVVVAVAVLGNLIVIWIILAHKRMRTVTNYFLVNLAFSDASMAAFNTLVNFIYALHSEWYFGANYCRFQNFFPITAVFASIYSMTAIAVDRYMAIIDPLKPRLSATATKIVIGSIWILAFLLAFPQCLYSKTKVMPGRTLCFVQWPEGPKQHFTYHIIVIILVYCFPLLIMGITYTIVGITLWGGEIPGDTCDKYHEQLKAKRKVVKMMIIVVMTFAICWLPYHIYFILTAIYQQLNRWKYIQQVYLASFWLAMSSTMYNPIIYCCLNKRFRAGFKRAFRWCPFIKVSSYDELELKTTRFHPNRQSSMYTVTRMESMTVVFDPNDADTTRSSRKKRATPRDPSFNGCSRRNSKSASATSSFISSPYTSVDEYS
Particulars: screen, control agonist; CHO, 37C, 2HR.

The next assay concerns the target T17, PTHR2 (Homo sapiens, UniProt P49190).
T17 construct: purchased Eurofins DiscoverX (PathHunter gpcrMAX)
Particulars: screen, control agonist; CHO, 37C, 2HR.

The target of the next assay is T18, SSTR3 (Homo sapiens, UniProt P32745).
T18 construct: purchased Eurofins DiscoverX (PathHunter gpcrMAX)
T18 sequence (P32745 whole entry): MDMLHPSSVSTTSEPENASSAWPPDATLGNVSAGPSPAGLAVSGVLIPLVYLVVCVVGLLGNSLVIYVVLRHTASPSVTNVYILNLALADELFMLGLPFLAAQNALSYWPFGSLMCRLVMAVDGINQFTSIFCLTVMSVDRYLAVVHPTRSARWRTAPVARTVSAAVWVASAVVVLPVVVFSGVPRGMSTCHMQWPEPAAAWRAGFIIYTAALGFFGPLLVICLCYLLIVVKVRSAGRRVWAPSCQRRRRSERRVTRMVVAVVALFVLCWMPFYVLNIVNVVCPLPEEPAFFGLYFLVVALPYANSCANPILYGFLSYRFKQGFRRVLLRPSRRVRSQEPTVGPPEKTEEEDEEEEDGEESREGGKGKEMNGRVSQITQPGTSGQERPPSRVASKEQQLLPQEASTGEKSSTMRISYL
The following applies: screen, control agonist; CHO, 37C, 2HR.

The target of a further assay is T19, PROKR1 (Homo sapiens, UniProt Q8TCW9).
T19 construct: purchased Eurofins DiscoverX (PathHunter gpcrMAX)
T19 sequence (Q8TCW9 whole entry): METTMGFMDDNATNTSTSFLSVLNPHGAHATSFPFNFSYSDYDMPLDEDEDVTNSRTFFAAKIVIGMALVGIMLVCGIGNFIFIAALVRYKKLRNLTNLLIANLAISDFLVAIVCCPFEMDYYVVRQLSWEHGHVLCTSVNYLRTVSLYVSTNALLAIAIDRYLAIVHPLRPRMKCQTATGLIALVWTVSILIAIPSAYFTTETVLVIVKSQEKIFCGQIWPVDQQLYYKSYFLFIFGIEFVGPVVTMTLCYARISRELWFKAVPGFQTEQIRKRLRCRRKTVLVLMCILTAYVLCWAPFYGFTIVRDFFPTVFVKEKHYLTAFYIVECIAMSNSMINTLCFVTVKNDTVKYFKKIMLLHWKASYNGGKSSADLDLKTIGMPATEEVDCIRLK
The following applies: screen, control agonist; CHO, 37C, 2HR.

The target in another assay is T20, PROKR2 (Homo sapiens, UniProt Q8NFJ6).
T20 construct: purchased Eurofins DiscoverX (PathHunter gpcrMAX)
The following applies: screen, control agonist; CHO, 37C, 2HR.

A further assay has as its target T21, C5AR1 (Homo sapiens, UniProt P21730).
T21 construct: purchased Eurofins DiscoverX (PathHunter gpcrMAX)
T21 sequence (P21730 1-350): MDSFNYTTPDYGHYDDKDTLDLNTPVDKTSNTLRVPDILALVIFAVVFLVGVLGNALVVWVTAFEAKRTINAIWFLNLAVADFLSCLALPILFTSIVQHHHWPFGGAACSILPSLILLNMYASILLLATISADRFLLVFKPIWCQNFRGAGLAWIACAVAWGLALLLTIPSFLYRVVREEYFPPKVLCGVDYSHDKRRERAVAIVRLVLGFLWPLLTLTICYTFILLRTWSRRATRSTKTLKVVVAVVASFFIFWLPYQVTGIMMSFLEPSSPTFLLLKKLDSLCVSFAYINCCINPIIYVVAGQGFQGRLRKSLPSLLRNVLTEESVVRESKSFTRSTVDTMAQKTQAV
Particulars: screen, control agonist; CHO, RT, 2HR.

The target in a further assay is T22, C5L2 (Homo sapiens, UniProt Q9P296).
T22 construct: purchased Eurofins DiscoverX (PathHunter gpcrMAX)
T22 sequence (Q9P296 whole entry): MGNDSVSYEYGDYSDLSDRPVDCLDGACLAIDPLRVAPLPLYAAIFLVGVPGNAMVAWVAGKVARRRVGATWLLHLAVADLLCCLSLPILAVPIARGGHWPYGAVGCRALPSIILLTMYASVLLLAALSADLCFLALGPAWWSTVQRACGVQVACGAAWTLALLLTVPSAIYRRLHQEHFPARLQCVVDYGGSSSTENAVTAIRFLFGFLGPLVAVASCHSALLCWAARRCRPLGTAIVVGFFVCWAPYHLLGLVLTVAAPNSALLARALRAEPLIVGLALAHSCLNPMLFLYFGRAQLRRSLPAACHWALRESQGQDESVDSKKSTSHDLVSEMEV
The following applies: screen, control agonist; CHO, 37C, 2HR.

T8 sequence (P43116 whole entry): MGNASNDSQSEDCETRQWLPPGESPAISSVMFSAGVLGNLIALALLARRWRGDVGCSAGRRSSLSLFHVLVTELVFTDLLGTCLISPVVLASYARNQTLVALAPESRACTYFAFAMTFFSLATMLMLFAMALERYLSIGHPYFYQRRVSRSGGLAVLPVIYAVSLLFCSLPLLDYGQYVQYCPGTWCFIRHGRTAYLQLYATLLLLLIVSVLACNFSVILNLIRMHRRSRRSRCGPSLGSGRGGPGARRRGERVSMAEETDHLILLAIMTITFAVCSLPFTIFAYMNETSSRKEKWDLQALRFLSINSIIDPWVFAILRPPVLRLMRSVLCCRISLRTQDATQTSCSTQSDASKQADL
T1 sequence (P43119 whole entry): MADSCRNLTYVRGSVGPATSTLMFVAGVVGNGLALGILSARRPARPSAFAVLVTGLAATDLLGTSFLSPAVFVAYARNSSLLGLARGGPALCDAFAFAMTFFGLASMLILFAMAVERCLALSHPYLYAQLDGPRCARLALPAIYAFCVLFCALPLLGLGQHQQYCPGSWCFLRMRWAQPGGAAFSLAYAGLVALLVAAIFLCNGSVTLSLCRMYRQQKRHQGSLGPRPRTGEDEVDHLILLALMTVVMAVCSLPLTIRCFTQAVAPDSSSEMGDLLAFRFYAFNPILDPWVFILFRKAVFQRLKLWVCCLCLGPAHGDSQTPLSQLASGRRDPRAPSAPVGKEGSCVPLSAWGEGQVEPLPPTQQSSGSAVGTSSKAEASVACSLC
T5 sequence (Q96G91 whole entry, one chain of several): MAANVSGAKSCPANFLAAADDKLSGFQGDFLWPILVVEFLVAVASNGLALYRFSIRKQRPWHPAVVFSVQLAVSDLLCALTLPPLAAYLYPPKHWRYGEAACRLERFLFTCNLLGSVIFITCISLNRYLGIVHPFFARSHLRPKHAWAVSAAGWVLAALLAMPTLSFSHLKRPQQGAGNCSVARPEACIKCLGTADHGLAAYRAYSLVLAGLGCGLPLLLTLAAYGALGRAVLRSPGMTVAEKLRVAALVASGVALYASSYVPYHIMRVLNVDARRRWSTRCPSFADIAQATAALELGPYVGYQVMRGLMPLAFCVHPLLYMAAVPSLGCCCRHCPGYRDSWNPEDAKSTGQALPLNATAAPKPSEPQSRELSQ
T4 sequence (Q8TDS5 whole entry): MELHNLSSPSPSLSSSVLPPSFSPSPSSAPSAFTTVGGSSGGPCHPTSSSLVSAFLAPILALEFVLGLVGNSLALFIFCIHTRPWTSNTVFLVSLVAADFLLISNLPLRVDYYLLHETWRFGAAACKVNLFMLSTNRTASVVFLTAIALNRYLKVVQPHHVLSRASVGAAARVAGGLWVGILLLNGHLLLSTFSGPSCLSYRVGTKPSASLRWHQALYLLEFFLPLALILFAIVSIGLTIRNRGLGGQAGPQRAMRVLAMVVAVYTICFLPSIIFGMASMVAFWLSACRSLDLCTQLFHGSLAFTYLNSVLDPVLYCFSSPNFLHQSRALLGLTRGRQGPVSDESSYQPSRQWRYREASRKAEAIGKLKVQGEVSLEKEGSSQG
T6 sequence (P21731 whole entry): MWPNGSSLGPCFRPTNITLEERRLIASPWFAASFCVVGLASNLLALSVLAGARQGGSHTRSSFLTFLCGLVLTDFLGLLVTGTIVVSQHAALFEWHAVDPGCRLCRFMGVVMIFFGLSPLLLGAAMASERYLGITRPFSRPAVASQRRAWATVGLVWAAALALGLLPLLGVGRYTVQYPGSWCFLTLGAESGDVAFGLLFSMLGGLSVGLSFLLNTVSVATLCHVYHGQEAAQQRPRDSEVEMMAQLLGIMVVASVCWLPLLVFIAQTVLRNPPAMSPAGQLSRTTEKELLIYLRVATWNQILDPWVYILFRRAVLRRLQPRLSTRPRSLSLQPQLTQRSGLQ

In the case of `CC#CCC(C)[C@H](O)/C=C/[C@@H]1[C@H]2c3cccc(CCCC(=O)O)c3O[C@H]2C[C@H]1O` (mixture of isomers) [Beraprost], the EC80 at PTGIR is 1.7 µM.
Consider `CSc1nc(N)c2ncn([C@@H]3O[C@H](COP(=O)(O)OP(=O)(O)O)[C@@H](O)[C@H]3O)c2n1` [2-methylthio-ADP], for which the results for the EC80 on P2RY1 and on P2RY12 were 0.0414 µM and 0.00157 µM, respectively.
In turn, `CCCCC/C=C\C/C=C\C/C=C\C=C\C(=O)CCCC(=O)O` [5-OxoETE] had an 80% effect concentration (EC80) at OXER1 of 2.13 µM.
Molecule `Nc1ncnc2c1ncn2[C@@H]1O[C@H](COP(=O)(O)OP(=O)(O)OP(=O)(O)O)[C@@H](O)[C@H]1O` [ATP] had an 80% effect concentration (EC80) on P2RY11 of 1290 µM.
In turn, `O=C(O)CCC/C=C\C[C@@H]1[C@@H](/C=C/[C@@H](O)COc2ccc(I)cc2)[C@H]2CC[C@@H]1O2` [I-BOP] displayed an EC80 at TBXA2R of 0.0291 µM.
For `CCCCCCCCCCCCCCCCOC[C@H](COP(=O)([O-])OCC[N+](C)(C)C)OC(C)=O` [PAF], the EC80 on PTAFR was 0.019 µM.
Consider `CCCCC[C@H](O)/C=C/[C@H]1[C@H](O)CC(=O)[C@@H]1C/C=C\CCCC(=O)O` [Prostaglandin E2], for which the 80% effect concentration (EC80) on PTGER4 (follow-up concentration-response assays) is 0.00475 µM; at PTGER4 (screen, HEK, 37C, 2HR) it was 0.00358 µM; on PTGER2, 3.65 µM.
Take `O=c1ccn([C@@H]2O[C@H](COP(=O)(O)OP(=O)(O)OP(=O)(O)O)[C@@H](O)[C@H]2O)c(=O)[nH]1` [UTP]: the EC80 came out at 0.225 µM at P2RY6, 2.58 µM at P2RY2 and 0.93 µM at P2RY4.
Molecule LDA-Bradykinin displayed an EC80 at BDKRB1 of 0.00467 µM.
In the assay with NPSR1b, “Neuropeptide S (SFRNGVGTGMKKTSFQRAKS; Neuropeptide S; UniProt P0C0P6 70-89, looked up) [control agonist]” displayed a concentration for an effect of 80% (EC80) of 0.0457 µM.
The molecule Peptide YY: control agonist showed an 80% effect concentration (EC80) with NPY1R of 0.00418 µM.
With PrRP-31, in the assay with PRLHR, the 80% effect concentration (EC80) turned out to be 0.0018 µM.
Take Relaxin-3: the EC80 with RXFP3 was determined as 0.0627 µM.
Substance P showed a concentration for an effect of 80% (EC80) with TACR3 of 0.0804 µM.
TIP-39 gave a concentration for an effect of 80% (EC80) with PTHR2 of 0.0048 µM.
The molecule Tyr-SST 14 yielded an EC80 at SSTR3 of 0.0542 µM.

B1: EG VEGF: control agonist for PROKR1 and PROKR2 (protein, UniProt P58294 20-105, looked up)
Prokineticin-1: AVITGACERDVQCGAGTCCAISLWLRGLRMCTPLGREGEECHPGSHKVPFFRKRKHHTCPCLPNLLCSRFPDGRYRCSMDLKNINF
As for B1, the EC80 was determined as 0.0533 µM in the assay with PROKR1 and 0.0302 µM in the assay with PROKR2.

B2: Complement C5a: control agonist (protein, UniProt P01031 678-751, looked up)
C5a anaphylatoxin: TLQKKIEEIAAKYKHSVVKKCCYDGACVNNDETCEQRAARISLGPRCIKAFTECCVVASQLRANISHKDMQLGR
modifications: C5a anaphylatoxin
notes: control agonist
In the case of B2, the results for the EC80 with C5AR1 and with C5L2 were 0.0036 µM and 0.0027 µM, respectively.
